Laboratory results as given in patent EP2725073B1, “Antifouling coating composition” (Jotun A/S, priority 2012, dated 2014).

Assay: Determination of carbodiimide half-life by IR spectroscopy (reaction with acetic acid in xylene)
Assay type: physicochemical
Details: for Remarks: observation during reaction with acetic acid in xylene at 23±2°C; for Half-life: time for 50% of the carbodiimide compound to react with acetic acid in xylene at 23±2°C, carbodiimide absorption at 2100-2200 cm^-1
Protocol: In particular, the carbodiimides of the present invention have slower reactivity than those described in US2005/0255081A1. The reactivity of carbodiimide compounds can be expressed as the half-life, i.e. in this case the time it takes for 50% of the carbodiimide compound to react with the carboxylic acid.
The carbodiimide compound preferably has relatively slow reactivity. Reactivity is measured by way of the half-life of the carbodiimide, which is defined as the time taken for 50% of the carbodiimide compound to react with a carboxylic acid.
Solutions of the carbodiimide compounds and acetic acid in xylene are prepared. A carbodiimide solution and the acetic acid solution are mixed and the reaction between the carbodiimide compound and acetic acid at 23±2°C is monitored by following the carbodiimide absorption at 2100-2200 cm^-1 in an zinc selenide cell. The reaction is followed until approximately 50% of the carbodiimide compound has reacted.

SMILES	Remarks	Half-life
C(=NC1CCCCC1)=NC1CCCCC1 [1,3-Dicyclohexylcarbodiimide]	Precipitation of urea products	0.25 h
Cc1ccc(N=C=Nc2ccc(C)cc2)cc1 [1,3-Di-p-tolylcarbodiimide]	–	2 h
Cc1ccccc1N=C=Nc1ccccc1C [1,3-Di-o-methylphenylcarbodiimide]	–	3 h
C[Si](C)(C)N=C=N[Si](C)(C)C [1,3-bis(trimethylsilyl)carbodiimide]	No reaction	–
CC(C)c1cccc(C(C)C)c1N=C=Nc1c(C(C)C)cccc1C(C)C [Bis(2,6-diisopropylphenyl) carbodiimide]	–	30 h
CC(C)N=C=NC(C)C [1,3-Diisopropylcarbodiimide]	Precipitation of urea products	0.75 h
